From article PMC10663540, “Structure-based discovery of dual pathway inhibitors for SARS-CoV-2 entry” (Nature Communications, 2023)
Values joined by “and” are separate entries in the source; they are usually repeats but may differ in a detail not shown here. Equal values may be shown once.

Tests used:
human CTSB = target: T1, human CTSB (Homo sapiens, UniProt P07858); assay: biochemical
T1 construct: […]; made in house

[1] = test system: SARS-CoV-2-S pseudotyped virus Omicron BA.4/BA.5; assay: microbe, parasite or virus in culture; type: cell-based
[2] = test system: SARS-CoV-2-S pseudotyped virus Omicron BA.2.12.1; assay: microbe, parasite or virus in culture; type: cell-based
TMPRSS2 = TMPRSS2 (Homo sapiens, UniProt O15393); assay: biochemical; type: biochemical
[3] = Severe acute respiratory syndrome coronavirus 2, Huh-7, read-out: Antiviral efficacy EC50 (95% CI)

Sequence of TMPRSS2 (O15393 256-492): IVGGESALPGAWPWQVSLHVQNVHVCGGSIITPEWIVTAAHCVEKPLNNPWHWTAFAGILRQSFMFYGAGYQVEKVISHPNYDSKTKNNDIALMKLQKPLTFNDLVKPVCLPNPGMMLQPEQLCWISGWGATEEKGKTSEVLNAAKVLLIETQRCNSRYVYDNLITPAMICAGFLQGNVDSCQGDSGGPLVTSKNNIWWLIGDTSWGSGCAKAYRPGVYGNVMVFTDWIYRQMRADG
Sequence of TMPRSS2 (O15393 other isoform, or with tags, fused parts or gaps): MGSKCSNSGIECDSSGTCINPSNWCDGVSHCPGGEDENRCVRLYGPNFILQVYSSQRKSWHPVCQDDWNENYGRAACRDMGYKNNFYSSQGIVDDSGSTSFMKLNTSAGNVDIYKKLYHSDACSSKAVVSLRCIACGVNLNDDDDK

## NC(N)=Nc1ccc(C(=O)OCCN2CCN(C(=O)N[C@@H](Cc3ccccc3)C(=O)N[C@H](/C=C/S(=O)(=O)c3ccccc3)CCc3ccccc3)CC2)cc1 [212-148]
Human CTSB; 212-148 0.12207 nM, Fig. 5c
  Inhibition: CTSB: 8.76% and 9.57% and 12.06%
  inhibition at 0.00012207 µM: 9.32%
Human CTSB; 212-148 0.976562 nM, Fig. 5c
  Inhibition: CTSB: 5.21% and 6.50% and 2.50% and 12.34%
Human CTSB; 212-148 1.95312 nM, Fig. 5c
  Inhibition: CTSB: 10.95% and 10.99% and 12.44%
  inhibition at 0.00195312 µM: 20.7%
Human CTSB; 212-148 7.8125 nM, Fig. 5c
  Inhibition: CTSB: 6.62% and 15.92% and 9.45% and 14.93%
Human CTSB; 212-148 15.625 nM, Fig. 5c
  Inhibition: CTSB: 29.27% and 18.56% and 15.75%
  inhibition at 0.015625 µM: 20.2%
Human CTSB; 212-148 31.25 nM, Fig. 5c
  Inhibition: CTSB: 38.89% and 26.87% and 33.63%
  inhibition at 0.03125 µM: 31.5%
Human CTSB; 212-148 62.5 nM, Fig. 5c
  Inhibition: CTSB: 49.58% and 58.40% and 54.67%
  inhibition at 0.0625 µM: 52.1%
Human CTSB; 212-148 125 nM, Fig. 5c
  Inhibition: CTSB: 77.49% and 76.59% and 75.86%
  inhibition at 0.125 µM: 76.8%
Human CTSB; 212-148 250 nM, Fig. 5c
  Inhibition: CTSB: 92.13% and 95.19% and 101.10%
  inhibition at 0.25 µM: 95.4%
Human CTSB; 212-148 500 nM, Fig. 5c
  Inhibition: CTSB: 95.97% and 101.09% and 103.70%
  inhibition at 0.5 µM: 101%
Human CTSB; 212-148 1000 nM, Fig. 5c
  Inhibition: CTSB: 100.47% and 101.20% and 101.53%
  inhibition at 1 µM: 98.8%
Human CTSB; 212-148 2000 nM, Fig. 5c
  Inhibition: CTSB: 98.63% and 99.08% and 103.05%
  inhibition at 2 µM: 102%
Human CTSB; substrate Cbz-Phe-Arg-AMC, pH 5.5, mean ± SD, four replicates
  IC50: 64.1 nM
[1]; 212-148 2e-5 μM, Fig. 5d
  Inhibition: BA.4.5/Huh-7: 20.50% and 13.32% and 20.61%
[1]; 212-148 0.0002 μM, Fig. 5d
  Inhibition: BA.4.5/Huh-7: 32.55% and 30.98%
[1]; 212-148 0.002 μM, Fig. 5d
  Inhibition: BA.4.5/Huh-7: 62.17% and 52.89%
[1]; 212-148 0.02 μM, Fig. 5d
  Inhibition: BA.4.5/Huh-7: 82.60% and 83.49%
[1]; 212-148 0.2 μM, Fig. 5d
  Inhibition: BA.4.5/Huh-7: 89.43% and 91.48%
[1]; 212-148 2 μM, Fig. 5d
  Inhibition: BA.4.5/Huh-7: 89.92% and 91.92%
[1]; 212-148 20 μM, Fig. 5d
  Inhibition: BA.4.5/Huh-7: 95.01% and 96.39%
[1]; Severe acute respiratory syndrome coronavirus 2, Huh-7, 120 h, 212-148 0.0002 μM, Fig. 5d, read-out: Inhibition: BA.4.5/Huh-7
  inhibition at 0.0002 µM: 43.8%
[1]; Severe acute respiratory syndrome coronavirus 2, Huh-7, 120 h, 212-148 0.002 μM, Fig. 5d, read-out: Inhibition: BA.4.5/Huh-7
  inhibition at 0.002 µM: 63.5%
[1]; Severe acute respiratory syndrome coronavirus 2, Huh-7, 120 h, 212-148 0.02 μM, Fig. 5d, read-out: Inhibition: BA.4.5/Huh-7
  inhibition at 0.02 µM: 84.4%
[1]; Severe acute respiratory syndrome coronavirus 2, Huh-7, 120 h, 212-148 0.2 μM, Fig. 5d, read-out: Inhibition: BA.4.5/Huh-7
  inhibition at 0.2 µM: 86.9%
[1]; Severe acute respiratory syndrome coronavirus 2, Huh-7, 120 h, 212-148 2 μM, Fig. 5d, read-out: Inhibition: BA.4.5/Huh-7
  inhibition at 2 µM: 86.8%
[1]; Severe acute respiratory syndrome coronavirus 2, Huh-7, 120 h, 212-148 20 μM, Fig. 5d, read-out: Inhibition: BA.4.5/Huh-7
  inhibition at 20 µM: 92.5%
[1]; [3]
  EC50: 0.4 nM
[2]; 212-148 0.0002 μM, Fig. 5d
  Inhibition: BA.2.12.1/Huh-7: 25.45% and 41.55%
[2]; 212-148 0.002 μM, Fig. 5d
  Inhibition: BA.2.12.1/Huh-7: 72.96% and 74.23%
[2]; 212-148 0.02 μM, Fig. 5d
  Inhibition: BA.2.12.1/Huh-7: 77.85% and 80.42%
[2]; 212-148 0.2 μM, Fig. 5d
  Inhibition: BA.2.12.1/Huh-7: 82.33% and 85.32%
[2]; 212-148 2 μM, Fig. 5d
  Inhibition: BA.2.12.1/Huh-7: 85.90% and 86.81%
[2]; 212-148 20 μM, Fig. 5d
  Inhibition: BA.2.12.1/Huh-7: 92.77% and 92.47%
[2]; Severe acute respiratory syndrome coronavirus 2, Huh-7, 120 h, 212-148 0.0002 μM, Fig. 5d
  inhibition at 0.0002 µM: 26.2%
[2]; Severe acute respiratory syndrome coronavirus 2, Huh-7, 120 h, 212-148 0.002 μM, Fig. 5d
  inhibition at 0.002 µM: 70.2%
[2]; Severe acute respiratory syndrome coronavirus 2, Huh-7, 120 h, 212-148 0.02 μM, Fig. 5d
  inhibition at 0.02 µM: 75.2%
[2]; Severe acute respiratory syndrome coronavirus 2, Huh-7, 120 h, 212-148 0.2 μM, Fig. 5d
  inhibition at 0.2 µM: 82.3%
[2]; Severe acute respiratory syndrome coronavirus 2, Huh-7, 120 h, 212-148 2 μM, Fig. 5d
  inhibition at 2 µM: 86.3%
[2]; Severe acute respiratory syndrome coronavirus 2, Huh-7, 120 h, 212-148 20 μM, Fig. 5d
  inhibition at 20 µM: 91.6%
[2]; [3]
  EC50: 0.4 nM
TMPRSS2; 0.5 nM TMPRSS2, 10 μM substrate, mean ± SD, four replicates
  IC50: 1380 nM
TMPRSS2; 212-148 15.2588 nM, Fig. 5b
  Inhibition: TMPRSS2: 5.04% and 4.06% and 3.14%
  inhibition at 0.0152588 µM: 3.01%
TMPRSS2; 212-148 30.5176 nM, Fig. 5b
  Inhibition: TMPRSS2: 3.05% and 3.16% and 4.84%
  inhibition at 0.0305176 µM: 4.19%
TMPRSS2; 212-148 61.0352 nM, Fig. 5b
  Inhibition: TMPRSS2: 6.85% and 6.15% and 3.83%
  inhibition at 0.0610352 µM: 6.56%
TMPRSS2; 212-148 122.07 nM, Fig. 5b
  Inhibition: TMPRSS2: 7.87% and 8.22% and 8.32%
  inhibition at 0.12207 µM: 8.2%
TMPRSS2; 212-148 244.141 nM, Fig. 5b
  Inhibition: TMPRSS2: 13.88% and 12.56% and 13.21%
  inhibition at 0.244141 µM: 13.6%
TMPRSS2; 212-148 488.281 nM, Fig. 5b
  Inhibition: TMPRSS2: 22.52% and 22.28% and 23.91%
  inhibition at 0.488281 µM: 23.3%
TMPRSS2; 212-148 976.562 nM, Fig. 5b
  Inhibition: TMPRSS2: 40.08% and 39.01% and 40.36%
  inhibition at 0.976562 µM: 39.7%
TMPRSS2; 212-148 1953.12 nM, Fig. 5b
  Inhibition: TMPRSS2: 63.03% and 61.74% and 62.43%
  inhibition at 1.95312 µM: 61.1%
TMPRSS2; 212-148 3906.25 nM, Fig. 5b
  Inhibition: TMPRSS2: 83.44% and 83.94% and 85.49%
  inhibition at 3.90625 µM: 83.6%
